Experimental findings from patent US11987575B2, “Tricyclic compounds as BCR-ABL inhibitors” (ASCENTAGE PHARMA (SUZHOU) CO., LTD., priority 2019, dated 2024) are described below.

For assay [1], the target named is BaF3(WT) (Homo sapiens, UniProt P00519). The assay can be described thus: WST (CCK-8) anti-proliferative assay, BaF3 WT. The settings on record: read-out: BaF3(WT); BaF3 WT cells, 72 h treatment, CCK-8 readout OD 450 nm.
Description: (§1) The anti-proliferative effect of representative compounds of the present disclosure was determined by a water-soluble tetrazolium (WST)-based assay using Cell Counting Kit-8 (CCK-8). Cells were seeded in 96-well plates and treated with different concentrations of test articles for 72 h. Each treatment was tested in triplicate. Briefly, a series of 9 concentrations were chosen for each test article and added at 100 μl/well into a 96-well plate. Each concentration was tested in triplicate. 100 μl of diluent was added into 3-6 wells in the same plate for cell control group, and another set of 3-6 wells was used as a blank control.
(§2) In each well, 100 μl of cell suspension (containing optimal cell numbers, which creates approximately 100% confluence of cells in control wells based on by the absorbance (OD) value) was dispensed into the same 96-well plate except for the blank well. The plate was then cultured at 37° C. in an incubator in an atmosphere with 5% CO2 for 72 h. At the end of the treatments, 20 μl/well of CCK-8 reagent was directly added to each well. The plate was then incubated at 37° C. in an incubator in an atmosphere with 5% CO2 for 2-4 hours.
(§3) The cells viability was calculated using the mean OD value of triplicated wells following the equation below: (OD sample−OD blank)/(OD cell control−OD blank)×100 IC50 values were calculated with Graphpad Prism 6.0 software using nonlinear regression (curve fitting) type data analysis.
Assay [2] deals with BaF3 (T315I mutant) (Homo sapiens, UniProt P00519, T315I, cells depend on it). The assay can be described thus: WST (CCK-8) anti-proliferative assay, BaF3 T315I mutant. Particulars: read-out: BaF3 (T315I mutant), 72 h treatment, CCK-8 readout OD 450 nm.
Description: as §1, §2, §3

With `CC(=O)N[C@H]1CC[C@@H]2c3cc(C(=O)Nc4ccc(OC(F)(F)Cl)cc4)cc(-c4ccn[nH]4)c3N(CC(C)(C)C)[C@H]12` [Compound 22-B, (3S,3aS,8bR)-3-acetamido-N-(4-(chlorodifluoromethoxy)phenyl)-4-neopentyl-5-(1H-pyrazol-5-yl)-1,2,3,3a,4,8b-hexahydrocyclopenta[b]indole-7-carboxamide], the figures for the GI50 in assay [1] and in assay [2] were 482 nM and 1010 nM, respectively.

`CCOC(=O)NC1CCC2c3cc(C(=O)Nc4ccc(OC(F)(F)Cl)cc4)cc(-c4ccn[nH]4)c3N(C(C)C)C12` (stereo not drawn) [Compound 28]: the figures for the GI50 in assay [1] and in assay [2] were 19 nM and 168 nM, respectively.

With `CC(=O)NC1CC2c3cc(C(=O)Nc4ccc(OC(F)(F)Cl)cc4)cc(-c4ccn[nH]4)c3N(C(C)C)C2C1` (stereo not drawn) [Compound 43, 2-acetamido-N-(4-(chlorodifluoromethoxy)phenyl)-4-isopropyl-5-(1H-pyrazol-5-yl)-1,2,3,3a,4,8b-hexahydrocyclopenta[b]indole-7-carboxamide], the GI50 in assay [1] stood at 190 nM; in assay [2], 768 nM.

For `CC(C)N1c2c(-c3ccn[nH]3)cc(C(=O)Nc3ccc(OC(F)(F)Cl)cc3)cc2C2CCN(C)CC21` (stereo not drawn) [Compound 40, N-(4-(chlorodifluoromethoxy)phenyl)-9-isopropyl-2-methyl-8-(1H-pyrazol-5-yl)-2,3,4,4a,9,9a-hexahydro-1H-pyrido[3,4-b]indole-6-carboxamide], the GI50 in assay [1] is 358 nM; in assay [2] it was 1110 nM.

For `CC(C)N1c2c(-c3ccn[nH]3)cc(C(=O)Nc3ccc(OC(F)(F)Cl)cc3)cc2C2CC(O)C(O)C21` (stereo not drawn) [Compound 3, N-(4-(chlorodifluoromethoxy)phenyl)-2,3-dihydroxy-4-isopropyl-5-(1H-pyrazol-5-yl)-1,2,3,3a,4,8b-hexahydrocyclopenta[b]indole-7-carboxamide], the GI50 in assay [1] came to 36 nM; in assay [2], 177 nM.

Consider `CC(C)N1c2c(-c3ccn[nH]3)cc(C(=O)Nc3ccc(OC(F)(F)Cl)cc3)cc2C2CCC(NC(=O)c3cocn3)C21` (stereo not drawn) [Compound 30], for which the GI50 in assay [1] was found to be 16 nM; in assay [2], 64 nM.

In the case of `CC(C)N1c2c(-c3ccn[nH]3)cc(C(=O)Nc3ccc(OC(F)(F)Cl)cc3)cc2C2CCCC21` (stereo not drawn) [Compound 2, N-(4-(chlorodifluoromethoxy)phenyl)-4-isopropyl-5-(1H-pyrazol-5-yl)-1,2,3,3a,4,8b-hexahydrocyclopenta[b]indole-7-carboxamide], the GI50 in assay [1] turned out to be 15 nM; in assay [2] it was 354 nM.

Regarding `CC(C)N1c2c(-c3ccn[nH]3)cc(C(=O)Nc3ccc(OC(F)(F)Cl)cc3)cc2C2CCC(NS(=O)(=O)c3nnc[nH]3)C21` (stereo not drawn) [Compound 17], the GI50 turned out to be 1060 nM in assay [1] and 1670 nM in assay [2].

`CC(C)N1c2c(-c3ccn[nH]3)cc(C(=O)Nc3ccc(OC(F)(F)Cl)cc3)cc2C2CCC(O)C21` (stereo not drawn) [Compound 1, N-(4-(chlorodifluoromethoxy)phenyl)-3-hydroxy-4-isopropyl-5-(1H-pyrazol-5-yl)-1,2,3,3a,4,8b-hexahydrocyclopenta[b]indole-7-carboxamide]: the GI50 was determined as 17 nM in assay [1] and 192 nM in assay [2].

For `CC(C)N1c2c(-c3ccn[nH]3)cc(C(=O)Nc3ccc(OC(F)(F)Cl)cc3)cc2C2CCC(NS(=O)(=O)N3CCCCC3)C21` (stereo not drawn) [Compound 16], the GI50 came to 12 nM in assay [1] and 252 nM in assay [2].

With `CC(C)C(=O)NC1CCC2c3cc(C(=O)Nc4ccc(OC(F)(F)Cl)cc4)cc(-c4ccn[nH]4)c3N(C(C)C)C12` (stereo not drawn) [Compound 7], the figures for the GI50 in assay [1] and in assay [2] were 14 nM and 142 nM, respectively.

`CC(C)N1c2c(-c3ccn[nH]3)cc(C(=O)Nc3ccc(OC(F)(F)Cl)cc3)cc2C2CCC(NC(=O)C3CCNCC3)C21` (stereo not drawn) [Compound 27]: the GI50 is 1240 nM in assay [1] and 5060 nM in assay [2].
